For assay [1], the target named is DNA-3-methyladenine glycosylase (Homo sapiens) (UniProt P29372). Conditions: Compound Concentration 10.0 uM, Hit No.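 Note: enzyme assay where MPG cuts a quenched duplex DNA oligonucleotide probe, paired with APE1 for strand incision and turnover, read as fluorescence at 594 nm.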
Description: Inhibition of MPG by quantifying inhibition of MPG-mediated cleavage and dissociation of quenched duplex DNA oligonucleotides, measured as fluorescence at 594 nm. To generate a functional strand incision and increase turn-over this assay is coupled to APE1.
The target in assay [2] is T1, Endonuclease 8-like 2 (Homo sapiens) (UniProt Q969S2).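 Note: fluorescence at 594 nm reports NEIL2 cutting and release of a quenched double-stranded DNA oligo substrate, reduced signal read as inhibition.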
T1 sequence (whole entry): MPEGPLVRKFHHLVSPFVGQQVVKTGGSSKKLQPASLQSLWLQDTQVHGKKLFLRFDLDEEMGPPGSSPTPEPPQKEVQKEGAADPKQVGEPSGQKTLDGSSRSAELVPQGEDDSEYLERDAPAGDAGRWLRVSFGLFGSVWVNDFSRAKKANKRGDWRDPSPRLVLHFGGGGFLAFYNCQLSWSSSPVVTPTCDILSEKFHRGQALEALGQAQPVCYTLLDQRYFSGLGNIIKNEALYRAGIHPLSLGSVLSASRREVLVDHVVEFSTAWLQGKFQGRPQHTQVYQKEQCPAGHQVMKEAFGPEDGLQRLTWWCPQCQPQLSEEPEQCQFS
The following applies: Compound Concentration 10.0 uM, Hit No.
Description: Inhibition of NEIL2 by quantifying inhibition of NEIL2-mediated cleavage and dissociation of quenched duplex DNA oligonucleotides, measured as fluorescence at 594 nm.

The target in assay [3] is G/T mismatch-specific thymine DNA glycosylase (Homo sapiens) (UniProt Q13569). The following applies: Compound Concentration 10.0 uM, Hit No.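 Note: human TDG cleavage of quenched duplex DNA oligonucleotides coupled to APE1, strand release read as fluorescence at 594 nm, inhibition of TDG activity.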
Description: Inhibition of TDG by quantifying inhibition of TDG-mediated cleavage and dissociation of quenched duplex DNA oligonucleotides, measured as fluorescence at 594 nm. To generate a functional strand incision and increase turn-over this assay is coupled to APE1.
The target of assay [4] is Methyl-CpG-binding domain protein 4 (Homo sapiens) (UniProt O95243). Conditions: Compound Concentration 10.0 uM, Hit No.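 Note: MBD4 activity read as fluorescence at 594 nm from cleavage and release of a quenched duplex DNA oligonucleotide, with APE1 coupled to incise the strand and raise turnover.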
Description: Inhibition of MBD4 by quantifying inhibition of MBD4-mediated cleavage and dissociation of quenched duplex DNA oligonucleotides, measured as fluorescence at 594 nm. To generate a functional strand incision and increase turn-over this assay is coupled to APE1.
Assay [5] deals with T2, Adenine DNA glycosylase (Homo sapiens) (UniProt Q9UIF7).
T2 sequence (whole entry): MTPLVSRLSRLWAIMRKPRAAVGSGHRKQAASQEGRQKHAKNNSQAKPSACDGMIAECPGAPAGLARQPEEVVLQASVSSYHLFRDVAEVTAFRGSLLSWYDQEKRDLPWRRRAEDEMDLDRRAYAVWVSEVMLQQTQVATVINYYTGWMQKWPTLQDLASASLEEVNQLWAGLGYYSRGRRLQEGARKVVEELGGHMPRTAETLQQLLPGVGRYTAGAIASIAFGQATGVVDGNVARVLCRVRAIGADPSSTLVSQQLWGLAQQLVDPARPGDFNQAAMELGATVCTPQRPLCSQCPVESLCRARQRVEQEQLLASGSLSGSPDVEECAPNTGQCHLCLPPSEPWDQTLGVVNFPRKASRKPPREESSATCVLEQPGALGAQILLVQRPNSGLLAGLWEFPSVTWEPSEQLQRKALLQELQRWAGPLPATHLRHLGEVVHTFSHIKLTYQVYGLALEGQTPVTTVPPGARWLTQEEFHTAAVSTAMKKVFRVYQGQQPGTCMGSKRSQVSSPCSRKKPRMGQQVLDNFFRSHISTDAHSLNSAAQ
Conditions: Compound Concentration 10.0 uM, Hit No.
Description: Inhibition of MUTYH by quantifying inhibition of MUTYH-mediated cleavage and dissociation of quenched duplex DNA oligonucleotides, measured as fluorescence at 594 nm. To generate a functional strand incision and increase turn-over this assay is coupled to APE1.

For assay [6], the target named is N-glycosylase/DNA lyase (Homo sapiens) (UniProt O15527). Conditions: Compound Concentration 10.0 uM.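 Note: OGG1 cleavage of a quenched duplex DNA oligonucleotide, coupled to APE1 for strand incision, read as fluorescence at 594 nm.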
Description: Inhibition of OGG1 by quantifying inhibition of OGG1-mediated cleavage and dissociation of quenched duplex DNA oligonucleotides, measured as fluorescence at 594 nm. To generate a functional strand incision and increase turn-over this assay is coupled to APE1.
The target in assay [7] is Endonuclease 8-like 1 (Homo sapiens) (UniProt Q96FI4). Conditions: Compound Concentration 10.0 uM, Hit No.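 Note: fluorescence at 594 nm from quenched duplex DNA oligonucleotides released by NEIL1 cleavage and strand separation, reported as reduction of this enzyme activity.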
Description: Inhibition of NEIL1 by quantifying inhibition of NEIL1-mediated cleavage and dissociation of quenched duplex DNA oligonucleotides, measured as fluorescence at 594 nm.
In assay [8] the target is Uracil-DNA glycosylase (Homo sapiens) (UniProt P13051). The following applies: Compound Concentration 10.0 uM, Hit No.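 Note: UNG excision on a quenched double-stranded DNA oligo probe, with APE1 added for strand incision and turnover, read as fluorescence at 594 nm as strands separate.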
Description: Inhibition of UNG by quantifying inhibition of UNG-mediated cleavage and dissociation of quenched duplex DNA oligonucleotides, measured as fluorescence at 594 nm. To generate a functional strand incision and increase turn-over this assay is coupled to APE1.
For assay [9], the target named is T3, Single-strand selective monofunctional uracil DNA glycosylase (Homo sapiens) (UniProt Q53HV7).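 Note: enzymatic SMUG1 assay coupled with APE1, reading fluorescence at 594 nm released when a quenched double-stranded DNA oligonucleotide substrate is cleaved and separated.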
T3 sequence (whole entry): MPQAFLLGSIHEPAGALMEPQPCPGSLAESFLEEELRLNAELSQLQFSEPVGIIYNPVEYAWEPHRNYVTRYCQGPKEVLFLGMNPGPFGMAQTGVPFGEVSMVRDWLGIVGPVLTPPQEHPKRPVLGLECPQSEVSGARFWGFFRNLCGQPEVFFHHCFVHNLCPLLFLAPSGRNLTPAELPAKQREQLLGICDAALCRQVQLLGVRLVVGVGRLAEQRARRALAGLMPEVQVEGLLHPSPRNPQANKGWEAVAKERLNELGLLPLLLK
The following applies: Compound Concentration 10.0 uM, Hit No.
Description: Inhibition of SMUG1 by quantifying inhibition of SMUG1-mediated cleavage and dissociation of quenched duplex DNA oligonucleotides, measured as fluorescence at 594 nm. To generate a functional strand incision and increase turn-over this assay is coupled to APE1.

Here are results for 19 compounds from ChEMBL document CHEMBL5665443, “Enzyme Inhibitor Single Concentration assay results for EUbOPEN Chemogenomics Library” (2024).

For orientation: inhibition means the relative decrease from the control value, in per cent.

The structures appear in SMILES notation.

Sequence of Uracil-DNA glycosylase (Homo sapiens) (P13051 whole entry): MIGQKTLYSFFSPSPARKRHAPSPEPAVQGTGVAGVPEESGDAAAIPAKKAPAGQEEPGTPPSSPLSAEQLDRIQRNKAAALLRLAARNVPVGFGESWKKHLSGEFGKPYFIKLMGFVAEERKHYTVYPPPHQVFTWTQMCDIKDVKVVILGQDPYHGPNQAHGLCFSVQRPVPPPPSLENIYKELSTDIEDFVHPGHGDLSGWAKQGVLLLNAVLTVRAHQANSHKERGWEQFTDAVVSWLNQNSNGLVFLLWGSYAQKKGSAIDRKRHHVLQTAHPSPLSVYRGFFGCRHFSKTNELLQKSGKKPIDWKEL
Sequence of G/T mismatch-specific thymine DNA glycosylase (Homo sapiens) (Q13569 whole entry, the tested form may be a part): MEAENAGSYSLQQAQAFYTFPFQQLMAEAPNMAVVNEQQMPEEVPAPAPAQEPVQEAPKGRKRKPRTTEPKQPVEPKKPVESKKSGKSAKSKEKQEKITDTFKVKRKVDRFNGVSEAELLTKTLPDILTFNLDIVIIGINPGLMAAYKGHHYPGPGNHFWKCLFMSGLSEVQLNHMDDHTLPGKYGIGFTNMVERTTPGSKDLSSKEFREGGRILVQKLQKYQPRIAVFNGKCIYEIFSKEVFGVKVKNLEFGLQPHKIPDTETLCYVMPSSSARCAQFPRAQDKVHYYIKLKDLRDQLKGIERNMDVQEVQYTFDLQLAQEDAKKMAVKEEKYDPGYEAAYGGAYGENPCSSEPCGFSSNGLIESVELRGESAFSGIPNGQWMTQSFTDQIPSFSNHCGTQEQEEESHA
Sequence of N-glycosylase/DNA lyase (Homo sapiens) (O15527 whole entry): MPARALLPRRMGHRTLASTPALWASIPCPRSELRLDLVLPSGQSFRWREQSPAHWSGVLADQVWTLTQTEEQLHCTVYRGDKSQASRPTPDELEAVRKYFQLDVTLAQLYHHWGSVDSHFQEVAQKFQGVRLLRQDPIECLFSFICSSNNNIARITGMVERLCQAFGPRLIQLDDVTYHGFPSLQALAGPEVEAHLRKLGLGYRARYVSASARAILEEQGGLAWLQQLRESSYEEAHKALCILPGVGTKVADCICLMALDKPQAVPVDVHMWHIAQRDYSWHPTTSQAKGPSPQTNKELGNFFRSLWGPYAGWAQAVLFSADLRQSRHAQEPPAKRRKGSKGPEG
Sequence of Methyl-CpG-binding domain protein 4 (Homo sapiens) (O95243 whole entry, the tested form may be a part): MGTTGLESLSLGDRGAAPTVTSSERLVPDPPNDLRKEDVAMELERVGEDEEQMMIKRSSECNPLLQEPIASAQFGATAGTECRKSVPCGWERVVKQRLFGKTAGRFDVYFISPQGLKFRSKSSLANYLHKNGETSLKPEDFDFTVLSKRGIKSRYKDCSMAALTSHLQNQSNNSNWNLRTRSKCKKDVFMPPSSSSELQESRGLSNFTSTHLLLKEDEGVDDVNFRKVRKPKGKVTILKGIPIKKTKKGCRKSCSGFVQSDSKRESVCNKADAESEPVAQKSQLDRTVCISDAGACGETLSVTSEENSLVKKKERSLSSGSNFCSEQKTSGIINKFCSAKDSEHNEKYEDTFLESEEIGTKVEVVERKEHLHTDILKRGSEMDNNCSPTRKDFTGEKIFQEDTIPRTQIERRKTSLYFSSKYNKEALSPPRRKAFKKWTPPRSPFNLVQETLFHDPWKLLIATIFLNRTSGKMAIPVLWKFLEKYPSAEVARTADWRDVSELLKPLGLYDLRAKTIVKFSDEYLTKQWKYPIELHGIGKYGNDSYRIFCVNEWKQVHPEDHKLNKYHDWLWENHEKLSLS
Sequence of DNA-3-methyladenine glycosylase (Homo sapiens) (P29372 whole entry): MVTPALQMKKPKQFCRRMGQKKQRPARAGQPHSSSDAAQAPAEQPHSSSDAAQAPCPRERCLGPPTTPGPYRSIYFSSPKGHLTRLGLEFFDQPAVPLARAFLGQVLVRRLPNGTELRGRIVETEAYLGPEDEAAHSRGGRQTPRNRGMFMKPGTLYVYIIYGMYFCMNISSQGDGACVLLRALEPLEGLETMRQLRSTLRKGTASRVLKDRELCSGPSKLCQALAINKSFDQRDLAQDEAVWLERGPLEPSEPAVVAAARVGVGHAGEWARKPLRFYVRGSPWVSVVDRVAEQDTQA
Sequence of Endonuclease 8-like 1 (Homo sapiens) (Q96FI4 whole entry): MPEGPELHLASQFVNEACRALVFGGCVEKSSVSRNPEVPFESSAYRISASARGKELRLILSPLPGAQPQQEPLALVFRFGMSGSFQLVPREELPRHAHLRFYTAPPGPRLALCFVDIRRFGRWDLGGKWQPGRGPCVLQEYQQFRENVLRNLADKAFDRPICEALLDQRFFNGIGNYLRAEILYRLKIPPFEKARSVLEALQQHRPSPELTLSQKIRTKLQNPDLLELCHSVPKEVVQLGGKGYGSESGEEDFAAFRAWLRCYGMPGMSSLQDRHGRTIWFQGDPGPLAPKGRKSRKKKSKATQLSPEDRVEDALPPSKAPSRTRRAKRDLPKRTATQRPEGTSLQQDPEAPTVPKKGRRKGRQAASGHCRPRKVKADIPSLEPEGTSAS

On to `CCC[C@H](Oc1cc(C)c(-n2cc(C(F)(F)F)cn2)c(C)c1)c1ccc(C(=O)NCCC(=O)O)cc1`, for which the inhibition in assay [1] is -2.83%; in assay [2] it was 6.5%; in [3] it was 24.9%; in assay [4], 19.8%; in [5] it was 39.2%; in assay [6] (Hit No) it was 8.48%. In addition, in [7], the inhibition came out at 4.69%.

For `COc1cccc(-c2c(C)n(Cc3c(F)cccc3C(F)(F)F)c(=O)n(C[C@H](NCCCC(=O)O)c3ccccc3)c2=O)c1F`, the inhibition in assay [1] is 1.07%; in assay [2], -9.22%; in [3], 27.2%; in assay [4], -5.02%; in assay [5], 1.3%; in assay [6] (Hit No), -3.13%. For the same compound, the inhibition in assay [7] is -2.87%.

With `Cc1c(F)cccc1NC(=O)Nc1ccc(Cl)c(S(=O)(=O)[C@H]2CCCNC2)c1O`, the inhibition was 11.6% in assay [1]; -7.22% in [2]; 3.94% in [3]; 0.266% in assay [4]; -4.97% in assay [5]; -9.51% in assay [8]. The inhibition in assay [9] is -3.57%.

Regarding `COc1cc(/C=C/C(=O)NCCn2c(C)cc3ccccc32)cc(OC)c1OC`, the inhibition in assay [1] was 27.9%; in assay [2] it was 4.49%; in [3] it was 15.6%; in assay [4] it was 11.5%; in assay [5], 6.04%; in [8] it was -0.0662%. Also, the inhibition was -9.62% in [7] and -8.26% in assay [9].

Consider `Cc1cc([C@@H](C)Nc2cccc(-c3cc(C)c(C(=O)N[C@@H](C)C(=O)O)c(C)c3)c2)ccc1Cl`, for which the inhibition is 24.6% in assay [1]; -3.73% in assay [2]; 36.1% in assay [3]; 41.7% in [4]; 43.4% in assay [5]; 24.2% in [6] (Hit No). Besides, the inhibition is -6.25% in assay [8] and -0.204% in assay [7].

`CCN(Cc1ccncc1)C(=O)C(CO)c1ccccc1` (configuration not stated): the inhibition in assay [1] was 3.77%; in assay [2], 9.75%; in assay [3] it was 7.61%; in assay [4] it was 1.02%; in assay [5], 14%; in [6] (Hit No) it was -6.9%. In [7], the inhibition was -2.58%.

For the compound `CC(C)C[C@H](NC(=O)N1CCCCCC1)C(=O)N[C@H](Cc1cn(C)c2ccccc12)C(=O)N[C@H](Cc1ccccn1)C(=O)O`, the inhibition is -0.244% in assay [1]; 6% in [2]; 3.66% in assay [3]; -1.3% in assay [4]; 9.62% in [5]; -9.37% in [6] (Hit No). In addition, the inhibition is -6.34% in assay [8] and -0.0556% in assay [7].

As to `O=C(O)COc1cccc(CN(Cc2ccc(-n3cccn3)cc2)S(=O)(=O)c2cccnc2)c1`, the inhibition was 2.46% in assay [1]; -7.47% in assay [2]; -2.75% in [3]; 13.1% in [4]; 5.01% in assay [5]; 0.389% in assay [7]. Besides, the inhibition in assay [9] is -3.28%.

`CNC[C@H](O)c1ccc(O)c(O)c1`: the inhibition in assay [1] was 10.2%; in [3], 37.5%; in assay [4] it was 46.8%; in assay [5] it was 28.8%; in assay [6] (Hit No) it was 30.3%; in [7] it was 9.88%.

For `CC#C[C@@H](CC(=O)O)c1ccc(OCc2cccc(-c3ccc(C(F)(F)F)cc3)c2)cc1`, the inhibition in assay [1] stood at 28.7%; in assay [2], 0.764%; in [3] it was 41.7%; in assay [4], 48.1%; in assay [5], 47.2%; in assay [6] (Hit Yes) it was 64.3%. For the same compound, the inhibition was -4.48% in assay [8] and 1.13% in assay [7].

Regarding `C=CC(=O)Nc1ccc2[nH]c(=O)n(C3CCN(C(=O)c4ccc(-c5nc6cc[nH]c(=O)c6cc5-c5ccccc5)cc4)CC3)c2c1`, the inhibition was -2.18% in assay [1]; 19.4% in [2]; 58.7% in assay [3]; -5.4% in assay [4]; 1.89% in assay [5]; 78.5% in assay [6] (Hit No). Also, the inhibition in assay [8] is -1.3%; in assay [7], -0.919%.

Take `Cc1cccc(S(=O)(=O)N(C)[C@H](C)CCN2CCC(C)CC2)c1`: the inhibition in assay [1] was -2.23%; in assay [2], 6.53%; in assay [3], 1.58%; in assay [4] it was 3.33%; in assay [5], 9.55%; in [8], -5.83%. Besides, the inhibition is 1.79% in [7] and 1.46% in [9].

As for `NS(=O)(=O)c1cncc(-c2nc(NCc3ccccn3)c3c(-c4ccccc4)cccc3n2)c1`, the inhibition in assay [1] was 0.0701%; in [2] it was -1.88%; in [3], 14.7%; in assay [4] it was 16%; in [5], 8.92%; in [8] it was 0.783%. The inhibition in [7] was found to be 10.4%; in assay [9], 7.73%.

For `Clc1ccc2nsnc2c1NC1=NCCN1`, the inhibition was 6.04% in assay [1]; 0.515% in assay [2]; 12% in assay [3]; -8.81% in [5]; -1.01% in assay [6] (Hit No); -7.76% in [8]. Moreover, the inhibition in assay [7] is -3.76%; in [9] it was 2.87%.

On to `CCCc1nc2c(C)cc(-c3nc4ccccc4n3C)cc2n1Cc1ccc(-c2ccccc2C(=O)O)cc1`, for which the inhibition was -0.129% in [1]; 15.5% in assay [2]; 18.9% in [3]; 15.7% in assay [4]; 24.6% in assay [5]; -6.03% in assay [8]. Besides, the inhibition stood at 15.1% in [7] and 3.75% in [9].

`O=C(Cc1ccccc1)Nc1nc2ccc(Cl)cc2c2nc(-c3ccco3)nn12`: the inhibition in assay [1] is 6.12%; in assay [2] it was -4.48%; in [3], 4.82%; in [4], -7.05%; in [5], 13.8%; in assay [6] (Hit No) it was -2.3%. Moreover, the inhibition in assay [7] was -6.88%.

Turning to `Cc1ccc(/C(=C\CN2CCCC2)c2ccccn2)cc1`, the inhibition in [1] is -1.09%; in assay [2], -2.48%; in assay [3], 1.66%; in assay [4] it was -4.67%; in [5], 2.96%; in [6] (Hit No) it was -5.51%. Besides, the inhibition in [7] was determined as 5.28%.

For the compound `Cc1ccc(-c2ccc(F)cc2COc2ccc(CCC(=O)O)cc2)cc1`, the inhibition is 13.7% in [1]; 4.26% in assay [2]; 27.6% in [3]; 34.9% in [4]; 37.1% in assay [5]; 31.9% in assay [6] (Hit No). Moreover, the inhibition in [7] turned out to be 4.39%.

With `Cc1cnc(CNCC2(F)CCN(C(=O)c3ccc(F)c(Cl)c3)CC2)nc1`, the inhibition in assay [1] was 6.04%; in assay [2], 7.5%; in [3] it was 6.93%; in assay [5] it was -3.43%; in [6] (Hit No), -1.55%; in [8] it was -8.07%. Besides, the figures for the inhibition in assay [7] and in [9] were 2.32% and -8.17%, respectively.
